Measured values as given in PubChem BioAssay AID330 (DTP/NCI, 2004).
Where “and” joins values, the source holds several entries; their conditions need not be identical. Identical values can stand only once. Inconclusive results and toxic doses are left out.

System: P388 leukemia ip, CD2F1 mice, survival T/C
Test: NCI In Vivo Anticancer Drug Screen. Data for tumor model P388 Leukemia (intraperitoneal) in CD2F1 (CDF1) mice
Conditions: endpoint: median survival time, higher = longer survival
How it was run: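 Mice carrying the transplanted tumor received test compound or vehicle. Survival was recorded in each group, and the value is the treated-group measurement divided by that of the vehicle-treated control group.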

[1] = dose: 25.0 mg/kg/injection, schedule: Q01DX009 (ip), vehicle: saline
[2] = dose: 50.0 mg/kg/injection, schedule: Q01DX009 (ip), vehicle: saline
[3] = dose: 50.0 mg/kg/injection, schedule: Q01DX005 (ip), vehicle: saline
[4] = dose: 25.0 mg/kg/injection, schedule: Q01DX009 (ip), vehicle: saline with Tween-80
[5] = dose: 50.0 mg/kg/injection, schedule: Q01DX009 (ip), vehicle: saline with Tween-80
[6] = dose: 100.0 mg/kg/injection, schedule: Q01DX009 (ip), vehicle: saline with Tween-80
[7] = dose: 50.0 mg/kg/injection, schedule: Q01DX009 (ip), vehicle: Klucel (hydroxypropylcellulose) (HPC)
[8] = dose: 100.0 mg/kg/injection, schedule: Q01DX009 (ip), vehicle: Klucel (hydroxypropylcellulose) (HPC)
[9] = dose: 200.0 mg/kg/injection, schedule: Q01DX009 (ip), vehicle: Klucel (hydroxypropylcellulose) (HPC)
[10] = dose: 100.0 mg/kg/injection, schedule: Q01DX005 (ip), vehicle: saline
[11] = dose: 100.0 mg/kg/injection, schedule: Q04DX003 (ip), vehicle: saline with Tween-80
[12] = dose: 200.0 mg/kg/injection, schedule: Q04DX003 (ip), vehicle: saline with Tween-80

`Nc1ccc(C(=O)CCCN2CCCCC2)cc1` was tested, and the T/C (dose: 12.5 mg/kg/injection, schedule: Q01DX009 (ip), vehicle: saline) was 104 % of control, the T/C (dose: 12.5 mg/kg/injection, schedule: Q04DX003 (ip), vehicle: saline) was 91 % of control and the T/C [1] was 95 % of control. The T/C (dose: 25.0 mg/kg/injection, schedule: Q04DX003 (ip), vehicle: saline) was 95 % of control, the T/C [2] was 90 % of control and the T/C (dose: 50.0 mg/kg/injection, schedule: Q04DX003 (ip), vehicle: saline) was 91 % of control.

In the case of `O=C1CN(CCN2CC(=O)N(CN3CCOCC3)C(=O)C2)CC(=O)N1CN1CCOCC1`, the T/C (dose: 12.5 mg/kg/injection, schedule: Q01DX005 (ip), vehicle: water) is reported as 108 % of control and 111 % of control and 119 % of control.

`CSc1noc(N)n1` was tested, and the T/C (dose: 12.5 mg/kg/injection, schedule: Q01DX005 (ip), vehicle: saline) was 94 % of control, the T/C (dose: 25.0 mg/kg/injection, schedule: Q01DX005 (ip), vehicle: saline) was 91 % of control and the T/C [3] was 103 % of control and 94 % of control.

`O=c1[nH]ccc2occc12` was tested, and the T/C [4] was 100 % of control, the T/C [5] was 100 % of control and the T/C [6] was 109 % of control.

`CC(=O)NCC(C)c1ccccc1` (stereo not drawn) was tested, and the T/C [4] was 102 % of control.

`O=C(OC[P+](c1ccccc1)(c1ccccc1)c1ccccc1)c1ccccc1` was tested, and the T/C [2] was 89 % of control.

In the case of `CC1=C(O)C(=O)C(c2c(C)cc(C)c(Br)c2C)=C(O)C1=O`, the T/C (dose: 6.25 mg/kg/injection, schedule: Q01DX005 (ip), vehicle: Klucel (hydroxypropylcellulose) (HPC)) is reported as 100 % of control and 104 % of control, the T/C (dose: 12.5 mg/kg/injection, schedule: Q01DX005 (ip), vehicle: Klucel (hydroxypropylcellulose) (HPC)) is reported as 104 % of control and 117 % of control and 118 % of control and the T/C (dose: 25.0 mg/kg/injection, schedule: Q01DX005 (ip), vehicle: Klucel (hydroxypropylcellulose) (HPC)) is reported as 104 % of control and 117 % of control. For the same compound, the T/C (dose: 50.0 mg/kg/injection, schedule: Q01DX005 (ip), vehicle: Klucel (hydroxypropylcellulose) (HPC)) was 116 % of control and 94 % of control.

`CCNC(=O)/C=C/c1cccc(Br)c1` was tested, and the T/C (dose: 50.0 mg/kg/injection, schedule: Q01DX005 (ip), vehicle: saline with Tween-80) was 105 % of control, the T/C (dose: 100.0 mg/kg/injection, schedule: Q01DX005 (ip), vehicle: saline with Tween-80) was 105 % of control and the T/C (dose: 200.0 mg/kg/injection, schedule: Q01DX005 (ip), vehicle: saline with Tween-80) was 98 % of control.

For `O=C(Nc1ccc(Br)cc1C(F)(F)F)O/N=C(\c1ccccc1)C(O)c1ccccc1` (stereo not drawn), the T/C [5] was 101 % of control, the T/C [6] was 96 % of control and the T/C (dose: 200.0 mg/kg/injection, schedule: Q01DX009 (ip), vehicle: saline with Tween-80) was 100 % of control.

`CC(=O)N1CCc2cc([N+](=O)[O-])ccc21` was tested, and the T/C [7] was 99 % of control, the T/C [8] was 113 % of control and the T/C [9] was 100 % of control. For the same compound, the T/C (dose: 400.0 mg/kg/injection, schedule: Q01DX009 (ip), vehicle: Klucel (hydroxypropylcellulose) (HPC)) was 110 % of control.

`CN1OC(=O)OC2(CCCCC2)C1=O` was tested, and the T/C [3] was 96 % of control, the T/C [10] was 99 % of control and the T/C (dose: 200.0 mg/kg/injection, schedule: Q01DX005 (ip), vehicle: saline) was 96 % of control.

`CNC(=S)N/N=C/c1ccccn1` was tested, and the T/C [1] was 117 % of control, the T/C [2] was 116 % of control and the T/C (dose: 100.0 mg/kg/injection, schedule: Q01DX009 (ip), vehicle: saline) was 101 % of control. For the same compound, the T/C (dose: 200.0 mg/kg/injection, schedule: Q01DX009 (ip), vehicle: saline) was 97 % of control.

`CCN(CC)CCOC1CCCCC1` was tested, and the T/C [3] was 105 % of control and the T/C [10] was 98 % of control.

`COc1ccc(Cc2n[nH]c(=S)n2-c2cc(C)ccc2C)cc1OC` was tested, and the T/C (dose: 60.0 mg/kg/injection, schedule: Q01DX005 (ip), vehicle: saline with Tween-80) was 102 % of control, the T/C (dose: 120.0 mg/kg/injection, schedule: Q01DX005 (ip), vehicle: saline with Tween-80) was 91 % of control and the T/C (dose: 240.0 mg/kg/injection, schedule: Q01DX005 (ip), vehicle: saline with Tween-80) was 93 % of control.

`C=CC1CC/C(=C/C)C(=O)O1` (stereo not drawn) was tested, and the T/C (dose: 50.0 mg/kg/injection, schedule: Q04DX003 (ip), vehicle: saline with Tween-80) was 103 % of control, the T/C [11] was 100 % of control and the T/C [12] was 100 % of control.

In the case of `NC(C(=O)O)C(O)c1ccc2c(c1)OCO2` (stereo not drawn), the T/C [11] is reported as 100 % of control, the T/C [12] is reported as 100 % of control and the T/C (dose: 400.0 mg/kg/injection, schedule: Q04DX003 (ip), vehicle: saline with Tween-80) is reported as 100 % of control.

With `COc1cc(OC)c(N=Cc2ccc(C=Nc3cc(Cl)c(OC)cc3OC)cc2)cc1Cl` the T/C [7] was 100 % of control, the T/C [8] was 89 % of control and the T/C [9] was 86 % of control.

In the case of `CC(=O)OC1(C)SCCN1C(N)=O` (stereo not drawn), the T/C [7] is reported as 99 % of control, the T/C [8] is reported as 104 % of control and the T/C [9] is reported as 100 % of control.
